Laboratory results as given in patent US9023889B2, “Use of ascorbic acid derivatives for the functionalization of matrices” (Merck Patent GmbH, priority 2006, dated 2015).

How the values were obtained:
[1] = tested on: pig skin; assay: Evidence of bonding to pig skin; settings: pig skin 24 h
Experimental: • 2% solution of DHAB in Arlasolve DMI sample (A) and Pelemol BIP sample (B) • formulation containing 1% of DHAB sample (C) [=54-07-5-A, from Example V] • 2% solution of DHHB in Arlasolve DMI sample (D) and isopropyl myristate sample (E) formulations containing 0.84% of DHHB sample (F) [=54-07-5-B from Example V] and 0.84% of DHHB+0.37% of vitamin C sample (G) [=54-07-5-C from Example V]. • pig skin is cut to 2.5×7.5 cm and placed on Plexiglas specimen slides. Procedure:
50 µl of each of samples (A) to (G) are dripped onto the specimen slides with pig skin, spread using a plastic spatula, and the specimen slides are stored in a desiccator [87% atmospheric humidity through sat. KCl solution] at room temperature for 24 h. The specimen slides are then rinsed with 50 ml of isopropanol into volumetric flasks, treated in an ultrasound bath for 5 min, clear-filtered via syringe filters (cloudiness due to detached skin constituents and measured by UV spectrometer (400-250 nm; UVmax˜355 nm) (residue 1 to 7). The 100% comparative value used are 50 ml isopropanol solutions of in each case 50 µl of samples (A) to (G), which are likewise measured by UV spectrometer.

[2] = tested on: chicken skin; assay: Evidence of bonding to chicken skin; settings: 2% in dimethylisosorbide, 2.66 μl/cm^2, exposure 16 hours, isopropanol extraction, photometric at 354 nm
Experimental: A) DHAB is dissolved to the extent of 2% in dimethylisosorbide. The solution is applied to chicken skin at an application rate of 2.66 μl/cm^2. After an exposure time of 16 hours, the samples are extracted with isopropanol in an ultrasound bath. The extracts are measured photometrically at 354 nm and compared with a 100% value (=application solution without use). The difference in the recovery compared with the 100% value corresponds here to the proportion of active compound bonded to the skin. For DHAB, a bound proportion of 76% is found, while the non-bonding comparative substance DHHB has, as expected, a low value of only 3%.

[3] = tested on: gelatine plates; assay: Evidence of bonding (skin model), gelatine plates; settings: 24 hrs at 87% atmospheric humidity, eluted with iPrOH in ultrasound bath
Experimental: 4% solutions of a mixture of two isomers of 2-(3,4-dihydroxy-5-oxo-2,5-di-hydrofuran-2-yl)-2-hydroxyethyl 2-(4-diethylamino-2-hydroxybenzoyl)benzo-ate, prepared in accordance with Example 1 or 2, abbreviated to DHAB below, in various solvent systems are prepared. 40 µl of each of these are applied to 2.5×7.5 cm gelatine plates and stored at 87% atmospheric humidity for 24 hrs. The plates are then eluted with 50 ml of iPrOH in an ultrasound bath for 5 min. The bonding to the gelatine is carried out by comparison with a corresponding standard solution: […]

[4] = tested on: Human hair samples; assay: Evidence of bonding to hair (SEM); settings: 0.2% solution in ethanol/water=80/20, 8 h, rinsed; comparison with DHHB
Experimental: Human hair samples are stirred with a 0.2% ethanolic active-compound solution of DHAB or DHHB (ethanol/water=80/20) for 8 h, subsequently rinsed with ethanol/water=80/20 and sent for SEM measurement (SEM=scanning electron microscope).

[5] = tested on: prolyl-4-hydroxylase; settings: cited from earlier work

With CCN(CC)c1ccc(C(=O)c2ccccc2C(=O)OC[C@@H](O)[C@H]2OC(=O)C(O)=C2O)c(O)c1 [DHAB, (R)-2-((R)-3,4-dihydroxy-5-oxo-2,5-dihydrofuran-2-yl)-2-hydroxyethyl 2-(4-diethylamino-2-hydroxybenzoyl)benzoate] the “Bonding (non-extractable residue)” value ([1]; 1% in W/O 54-07-5-A) was 91%, the “Bonding (non-extractable residue)” value ([1]; 2% in Arlasolve DMI) was 97% and the “Bonding (non-extractable residue)” value ([1]; 2% in Pelemol BIP) was 89%. For the same molecule, the “bound proportion (proportion of active compound bonded to the skin)” value [2] was 76%, the “Non-extractable content and therefore bonded to the skin” value ([3]; 4% solution in EG/water 94/6 on gelatine plate) was 97.0% and the “Non-extractable content and therefore bonded to the skin” value ([3]; 4% solution in i-PrOH on gelatine plate) was 12.5%. The “active-compound adduction onto the hair cuticles (SEM picture)” value [4] was “clearly increasingly evident”.

In the case of CCCCCCOC(=O)c1ccccc1C(=O)c1ccc(N(CC)CC)cc1O [DHHB, hexyl 2-(4-diethylamino-2-hydroxybenzoyl)benzoate], the “Bonding (non-extractable residue)” value ([1]; 0.84% in W/O 54-07-5-B) is reported as 5%, the “Bonding (non-extractable residue)” value ([1]; 2% in Arlasolve DMI) is reported as 0% and the “Bonding (non-extractable residue)” value ([1]; 2% in isopropyl myristate) is reported as 2%. For the same molecule, the “bound proportion (proportion of active compound bonded to the skin)” value [2] was 3%.

For CC(=O)Oc1ccccc1C(=O)OC[C@H](OC(=O)c1ccccc1OC(C)=O)[C@H]1OC(=O)C(O)=C1O [O^5O^6-bis(2-acetoxybenzoyl) L-ascorbate], the “supporting the activity of the enzyme prolyl-4-hydroxylase” value [5] is given as “capable of supporting the activity” and the “affinity to the enzyme” value ([5]; compared with the monosubstituted compound) is given as “lower affinity”.

For CC(=O)Oc1ccccc1C(=O)OC[C@H](O)[C@H]1OC(=O)C(O)=C1O [O^6-(2-acetoxybenzoyl) L-ascorbate], the “supporting the activity of the enzyme prolyl-4-hydroxylase” value [5] is given as “capable of supporting the activity”.
